Source: ChEMBL document CHEMBL1201862, “PubChem BioAssay data set” (2004)
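Briefly, cells in 96-well plates were exposed to five compound concentrations for 48 h, and endpoints were estimated by linear interpolation. Here, GI50 denotes the concentration required for 50% inhibition of growth.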 Activity calls are given as the source filed them. No stated cut-off is given here; in the data, active = GI50 up to about 1.1 µM and inactive = higher.

Columns and labels:
Experiment in all cases: NCI anticancer screen, dose series, 48 h
SF-268 = test system: SF-268
SNB-75 = test system: SNB-75
HCT-116 = test system: HCT-116
OVCAR-4 = test system: OVCAR-4
SK-MEL-28 = test system: SK-MEL-28
OVCAR-5 = test system: OVCAR-5
NCI-H226 = test system: NCI-H226
SF-295 = test system: SF-295
PC-3 = test system: PC-3
NCI-H460 = test system: NCI-H460
HCT-15 = test system: HCT-15
A549 = test system: A549
U-251 = test system: U-251
786-0 = test system: 786-0
K562 = test system: K562
UACC-257 = test system: UACC-257
HOP-92 = test system: HOP-92
SN12C = test system: SN12C
SF-539 = test system: SF-539
SR = test system: SR

SMILES	GI50 (SF-268)	GI50 (SNB-75)	GI50 (HCT-116)	GI50 (OVCAR-4)	GI50 (SK-MEL-28)	GI50 (OVCAR-5)	GI50 (NCI-H226)	GI50 (SF-295)	GI50 (PC-3)	GI50 (NCI-H460)	GI50 (HCT-15) [µM]	GI50 (A549)	GI50 (U-251)	GI50 (786-0)	GI50 (K562)	GI50 (UACC-257)	GI50 (HOP-92)	GI50 (SN12C)	GI50 (SF-539)	GI50 (SR)
O=c1[nH]nc(-c2ccccc2)n1/N=C/c1ccccc1Cl	53.6 µM (inactive)	36.5 µM (inactive)	33.9 µM (inactive)	15.2 µM (inactive)	52 µM (inactive)	> 100 µM (inactive)	30.8 µM (inactive)	34 µM (inactive)	15.1 µM (inactive)	13 µM (inactive)	31.6	34.1 µM (inactive)	38.5 µM (inactive)	32.5 µM (inactive)	31.3 µM (inactive)	64 µM (inactive)	67.1 µM (inactive)	48.8 µM (inactive)	39.3 µM (inactive)	30.3 µM (inactive)
COc1c2c(nc3ccccc13)-c1cc3c(c(=O)n1C2)COC(=O)C3(O)CC(=O)N1CCOCC1 (stereo not given)	0.532 µM (active)	1.35 µM (inactive)	6.55 µM (inactive)	46.1 µM (inactive)	17 µM (inactive)	11.4 µM (inactive)	6 µM (inactive)	3.59 µM (inactive)	21.1 µM (inactive)	1.17 µM (inactive)	41.4	10.5 µM (inactive)	0.528 µM (active)	2.07 µM (inactive)	4.85 µM (inactive)	19 µM (inactive)	9.25 µM (inactive)	1.59 µM (inactive)	0.964 µM (active)	0.23 µM (active)
COc1ccc(OC)c(/C=C/NC=O)c1	> 100 µM (inactive)	> 51.6 µM (inactive)	> 100 µM (inactive)	> 100 µM (inactive)	> 100 µM (inactive)	> 100 µM (inactive)	> 100 µM (inactive)	> 100 µM (inactive)	> 100 µM (inactive)	> 100 µM (inactive)	> 100	> 100 µM (inactive)	> 100 µM (inactive)	> 100 µM (inactive)	> 100 µM (inactive)	> 100 µM (inactive)	> 100 µM (inactive)	> 100 µM (inactive)	> 100 µM (inactive)	22 µM (inactive)
O=C(N/N=C1\C(=O)Nc2ccc(Br)cc21)/C(O)=C/C(=O)c1ccc(Cl)cc1	36.4 µM (inactive)	43.8 µM (inactive)	47.1 µM (inactive)	> 100 µM (inactive)	51.6 µM (inactive)	97.5 µM (inactive)	75.2 µM (inactive)	54 µM (inactive)	77.1 µM (inactive)	> 100 µM (inactive)	64.4	> 100 µM (inactive)	43.6 µM (inactive)	37.7 µM (inactive)	8.77 µM (inactive)	> 100 µM (inactive)	43.1 µM (inactive)	67.8 µM (inactive)	71.3 µM (inactive)	< 0.01 µM (active)
Oc1cc(O)c2c(c1)O[C@H](c1ccc(O)c(O)c1)[C@@H](O)C2 [CIANIDANOL]	> 100 µM (inactive)	> 100 µM (inactive)	> 100 µM (inactive)	> 100 µM (inactive)	> 100 µM (inactive)	> 100 µM (inactive)	> 100 µM (inactive)	> 100 µM (inactive)	> 100 µM (inactive)	> 100 µM (inactive)	> 100	> 100 µM (inactive)	> 100 µM (inactive)	> 100 µM (inactive)	> 100 µM (inactive)	> 100 µM (inactive)	> 100 µM (inactive)	> 100 µM (inactive)	> 100 µM (inactive)	> 100 µM (inactive)
